Experimental data: US8163771B2, “11 β-HSD1 modulators” (Exelixis, Inc., priority 2008, dated 2012)

molecular target: T1, recombinant human 11 β-HSD1 (Homo sapiens, UniProt P28845); assay: 11 β-HSD1 SPA Assay (Scintillation Proximity Assay); type: biochemical
T1 construct: made in house; host or cells: E. coli
Method in brief: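 E. coli-expressed human enzyme (30-100 nM) with tritiated cortisone 40 nM and NADPH 1 mM in HEPES buffer pH7.4, 2 hours at room temperature. Stopped with protein A SPA beads carrying anti-cortisol antibody and glycyrrhetinic acid; counted after overnight incubation. IC50 from percent inhibition between no-enzyme and no-compound signals.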

T1 sequence (P28845 whole entry): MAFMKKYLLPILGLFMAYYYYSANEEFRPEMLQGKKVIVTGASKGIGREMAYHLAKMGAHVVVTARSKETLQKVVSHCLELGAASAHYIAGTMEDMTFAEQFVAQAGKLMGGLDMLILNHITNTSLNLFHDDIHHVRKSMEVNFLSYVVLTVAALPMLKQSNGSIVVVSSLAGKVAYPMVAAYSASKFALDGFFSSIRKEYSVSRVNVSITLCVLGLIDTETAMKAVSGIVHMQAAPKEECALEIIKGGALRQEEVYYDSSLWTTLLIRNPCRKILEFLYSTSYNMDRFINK

`CC(C)(Oc1ccc(Cl)cc1C(F)(F)F)C(=O)N[C@H]1C[C@H]2CC[C@@H](C1)N2c1ccc(-c2nnn[nH]2)nc1` [Example 306, 2-{[4-chloro-2-(trifluoromethyl)phenyl]oxy}-2-methyl-N-{8-[6-(1H-tetrazol-5-yl)pyridin-3-yl]-8-azabicyclo[3.2.1]oct-3-endo-yl}propanamide] and `CC(C)(Oc1ccc(Cl)cc1C(C)(C)O)C(=O)N[C@H]1C[C@H]2CC[C@@H](C1)N2c1ccc(C(=O)NCC(F)F)cn1` [Example 465, 6-[3-endo-({2-[4-chloro-2-(2-hydroxypropan-2-yl)phenoxy]-2-methylpropanoyl}amino)-8-azabicyclo[3.2.1]oct-8-yl]-N-(2,2-difluoroethyl)pyridine-3-carboxamide] cannot be ordered by IC50: under 200 nM for the first, under 200 nM for the second.

`Cc1cc(C(=O)NC2CC2)cnc1N1[C@@H]2CC[C@H]1C[C@@H](NC(=O)C(C)(C)Oc1ccc(Cl)cc1)C2` [Example 40, 6-[3-endo-({2-[(4-chlorophenyl)oxy]-2-methylpropanoyl}amino)-8-azabicyclo[3.2.1]oct-8-yl]-N-cyclopropyl-5-methylpyridine-3-carboxamide] and `CC(C)(Oc1cc(Cl)ccc1Cl)C(=O)N[C@H]1C[C@H]2CC[C@@H](C1)N2c1ccc(C(=O)NC2CC2)cn1` [Example 71, N-cyclopropyl-6-[3-endo-({2-[(2,5-dichlorophenyl)oxy]-2-methylpropanoyl}amino)-8-azabicyclo[3.2.1]oct-8-yl]pyridine-3-carboxamide] cannot be ordered by IC50: under 200 nM for the first, under 200 nM for the second.

`COc1ccc(OC(C)(C)C(=O)N[C@H]2C[C@H]3CC[C@@H](C2)N3c2ccc(S(N)(=O)=O)cn2)cc1` [Example 181, N-{8-[5-(aminosulfonyl)pyridin-2-yl]-8-azabicyclo[3.2.1]oct-3-endo-yl}-2-methyl-2-{[4-(methyloxy)phenyl]oxy}propanamide] and `CC(C)(Oc1c(F)cc(F)cc1F)C(=O)N[C@H]1C[C@H]2CC[C@@H](C1)N2c1ccc(S(C)(=O)=O)cn1` [Example 258, 2-methyl-N-{8-[5-(methylsulfonyl)pyridin-2-yl]-8-azabicyclo[3.2.1]oct-3-endo-yl}-2-[(2,4,6-trifluorophenyl)oxy]propanamide] cannot be ordered by IC50: under 200 nM for the first, under 200 nM for the second.

`CC(C)(Oc1ccc(Cl)cc1Cl)C(=O)N[C@H]1C[C@H]2CC[C@@H](C1)N2c1ccc(C(=O)NCC(F)(F)C(F)(F)F)cn1` [Example 126, 6-[3-endo-({2-[(2,4-dichlorophenyl)oxy]-2-methylpropanoyl}amino)-8-azabicyclo[3.2.1]oct-8-yl]-N-(2,2,3,3,3-pentafluoropropyl)pyridine-3-carboxamide] and `CC(C)(Oc1ccc(Cl)cc1CCO)C(=O)N[C@H]1C[C@H]2CC[C@@H](C1)N2c1ccc(C(=O)NCC(F)(F)F)cn1` [Example 383, 6-[3-endo-({2-[4-chloro-2-(2-hydroxyethyl)phenoxy]-2-methylpropanoyl}amino)-8-azabicyclo[3.2.1]oct-8-yl]-N-(2,2,2-trifluoroethyl)pyridine-3-carboxamide] cannot be ordered by IC50: under 200 nM for the first, under 200 nM for the second.

`CC(C)(Oc1c(Cl)cc(F)cc1C(F)(F)F)C(=O)N[C@H]1C[C@H]2CC[C@@H](C1)N2c1ccc(S(C)(=O)=O)cn1` [Example 179, 2-{[2-chloro-4-fluoro-6-(trifluoromethyl)phenyl]oxy}-2-methyl-N-{8-{5-(methylsulfonyl)pyridin-2-yl]-8-azabicyclo[3.2.1]oct-3-endo-yl}propanamide] and `CC(C)(Oc1ccc(F)cc1S(C)(=O)=O)C(=O)N[C@H]1C[C@H]2CC[C@@H](C1)N2c1ccc(C(N)=O)cn1` [Example 269, 6-{3-endo-[(2-{[4-fluoro-2-(methylsulfonyl)phenyl]oxy}-2-methylpropanoyl)amino]-8-azabicyclo[3.2.1]oct-8-yl}pyridine-3-carboxamide] cannot be ordered by IC50: under 200 nM for the first, under 200 nM for the second.

`CC(C)(Oc1ncc(Cl)cc1Cl)C(=O)NC1CC2CCC(C1)N2c1ccc(C(=O)NC2CC2(F)F)cn1` (stereo not drawn) [Example 399, 6-(3-endo-(2-(3,5-dichloropyridin-2-yloxy)-2-methylpropanamido)-8-azabicyclo[3.2.1]octan-8-yl)-N-(2,2-difluorocyclopropyl) nicotinamide] and `CC(C)(Oc1ccc(Cl)cc1Cl)C(=O)NC1CC2CCC(C1)N2c1ccc(C(=O)NC2CC2(F)F)cn1` (stereo not drawn) [Example 268, 6-[3-endo-({2-[(2,4-dichlorophenyl)oxy]-2-methylpropanoyl}amino)-8-azabicyclo[3.2.1]oct-8-yl]-N-(2,2-difluorocyclopropyl)pyridine-3-carboxamide] cannot be ordered by IC50: under 200 nM for the first, under 200 nM for the second.

`CS(=O)(=O)c1cccc(C2(C(=O)N[C@H]3C[C@H]4CC[C@@H](C3)N4c3ccc(C(=O)NCC(F)(F)F)cn3)CC2)c1` [Example 289, 6-{3-endo-[({1-[3-(methylsulfonyl)phenyl]cyclo-propyl}carbonyl)amino]-8-azabicyclo[3.2.1]oct-8-yl}-N-(2,2,2-trifluoroethyl)pyridine-3-carboxamide] and `CC(C)(Oc1ccc(Cl)cc1OC(F)(F)F)C(=O)N[C@H]1C[C@H]2CC[C@@H](C1)N2c1ccc(C(=O)NC2(CO)CC2)cn1` [Example 427, 6-[3-endo-({2-[4-chloro-2-(trifluoromethoxy)phenoxy]-2-methylpropanoyl}amino)-8-azabicyclo[3.2.1]oct-8-yl]-N-[1-(hydroxymethyl)cyclopropyl] pyridine-3-carboxamide] cannot be ordered by IC50: under 2000 nM for the first, under 200 nM for the second.
